Test results published in ChEMBL document CHEMBL5053525, “Synthesis and antiviral effect of phosphamide modified vidarabine for treating HSV 1 infections” (Bioorg Med Chem Lett, 2021).
Activity calls are given as the source filed them. No cut-off for these calls is given here.

Legend:
Human alphaherpesvirus 1 [1] = assay: Antiviral activity against HSV-1 infected in human Huh-7 cells assessed as inhibition of viral replication by measuring ICPO level at 10 uM pre-infected with viral particles for 2 hrs followed by compound treatment for 24 hrs by Western blot analysis; type: functional, organism-based
Human alphaherpesvirus 1 [2] = assay: Antiviral activity against HSV-1 infected in human HepG2 cells assessed as inhibition of viral replication by measuring ICPO level at 10 uM pre-infected with viral particles for 2 hrs followed by compound treatment for 24 hrs by Western blot analysis; type: functional, organism-based
Human alphaherpesvirus 1 [3] = assay: Antiviral activity against HSV-1 infected in human Huh-7 cells assessed as reduction in plaque forming units at 1 uM measured after 48 hrs by virus titre method; type: functional
Huh-7 = assay: Cytotoxicity against human Huh-7 cells assessed as effect on cell viability at 10 uM measured by MTT asay; type: cell-based; conditions: huh-7, 10 µM
Human alphaherpesvirus 1 [4] = assay: Antiviral activity against HSV-1 infected in human Huh-7 cells assessed as reduction in plaque forming units at 1 uM measured after 48 hrs by virus titre method relative to NTC; type: functional
Human alphaherpesvirus 1 [5] = assay: Antiviral activity against HSV-1 infected in African green monkey Vero cells assessed as inhibition of viral replication by measuring ICPO level at 10 uM pre-infected with viral particles for 2 hrs followed by compound treatment for 24 hrs by Western blot analysis; type: functional, organism-based
Human alphaherpesvirus 1 [6] = assay: Antiviral activity against GFP-expressing HSV-1 assessed as reduction in viral growth by fluorescence assay; type: functional, organism-based
Human alphaherpesvirus 1 [7] = assay: Antiviral activity against HSV-1 infected in human Huh-7 cells assessed as inhibition of viral replication by measuring ICPO level; type: functional, organism-based; conditions: dose 0.1-1.6 µM

| Structure (SMILES) | inhibition (Human alphaherpesvirus 1 [1]) | inhibition (Human alphaherpesvirus 1 [2]) | also measured |
| --- | --- | --- | --- |
| COC(=O)[C@@H](NP(=O)(OC[C@H]1O[C@@H](n2cnc3c(N)ncnc32)[C@@H](O)[C@@H]1O)Oc1ccccc1)C(C)C (stereo partly specified) | Active | Active | – |
| CC(C)OC(=O)[C@H](C)N[P@](=O)(OC[C@H]1O[C@@H](n2cnc3c(N)ncnc32)[C@@H](O)[C@@H]1O)Oc1ccccc1 | Active | Active | – |
| CSCC[C@H](N[P@](=O)(OC[C@H]1O[C@@H](n2cnc3c(N)ncnc32)[C@@H](O)[C@@H]1O)Oc1ccccc1)C(=O)OC(C)C | Active | Active | – |
| CC(C)OC(=O)[C@@H](NP(=O)(OC[C@H]1O[C@@H](n2cnc3c(N)ncnc32)[C@@H](O)[C@@H]1O)Oc1ccccc1)C(C)C (stereo partly specified) | Active | Active | – |
| CC(C)C[C@H](N[P@](=O)(OC[C@H]1O[C@@H](n2cnc3c(N)ncnc32)[C@@H](O)[C@@H]1O)Oc1ccccc1)C(=O)OC(C)C | Active | Active | Activity (Human alphaherpesvirus 1 [3]): inactive; Activity (Huh-7): Non-Toxic; fold change (FC) (Human alphaherpesvirus 1 [4]): 1000; inhibition (Human alphaherpesvirus 1 [5]): inactive; EC50 (Human alphaherpesvirus 1 [6]): 526 nM; inhibition (Human alphaherpesvirus 1 [7]): Dose-dependent effect |
| CC(C)OC(=O)[C@H](Cc1ccccc1)N[P@](=O)(OC[C@H]1O[C@@H](n2cnc3c(N)ncnc32)[C@@H](O)[C@@H]1O)Oc1ccccc1 | Active | Active | Activity (Huh-7): Non-Toxic; inhibition (Human alphaherpesvirus 1 [5]): inactive; EC50 (Human alphaherpesvirus 1 [6]): 1060 nM; inhibition (Human alphaherpesvirus 1 [7]): Dose-dependent effect |
| CC(C)OC(=O)[C@H](Cc1c[nH]c2ccccc12)N[P@](=O)(OC[C@H]1O[C@@H](n2cnc3c(N)ncnc32)[C@@H](O)[C@@H]1O)Oc1ccccc1 | Active | Active | – |
| NC(=O)c1ncn([C@@H]2O[C@H](CO)[C@@H](O)[C@H]2O)n1 [RIBAVIRIN] | – | – | Activity (Human alphaherpesvirus 1 [3]): 100 PFU/ml |
| CC(C)C[C@H](NP(=O)(OC[C@H]1O[C@@H](n2cnc3c(N)ncnc32)[C@@H](O)[C@@H]1O)Oc1ccccc1)C(=O)OC(C)C (stereo partly specified) | Active | Active | Activity (Huh-7): Non-Toxic; inhibition (Human alphaherpesvirus 1 [5]): inactive; EC50 (Human alphaherpesvirus 1 [6]): 1180 nM; inhibition (Human alphaherpesvirus 1 [7]): Dose-dependent effect |
| CC(C)OC(=O)[C@@H](N[P@](=O)(OC[C@H]1O[C@@H](n2cnc3c(N)ncnc32)[C@@H](O)[C@@H]1O)Oc1ccccc1)C(C)C | Active | Active | – |
| CC(C)OC(=O)[C@H](C)NP(=O)(OC[C@H]1O[C@@H](n2cnc3c(N)ncnc32)[C@@H](O)[C@@H]1O)Oc1ccccc1 (stereo partly specified) | Active | Active | – |
| COC(=O)[C@H](NP(=O)(OC[C@H]1O[C@@H](n2cnc3c(N)ncnc32)[C@@H](O)[C@@H]1O)Oc1ccccc1)C(C)C (stereo partly specified) | Active | Active | – |
| CSCC[C@H](NP(=O)(OC[C@H]1O[C@@H](n2cnc3c(N)ncnc32)[C@@H](O)[C@@H]1O)Oc1ccccc1)C(=O)OC(C)C (stereo partly specified) | Active | Active | – |
| Nc1nc2c(ncn2COC(CO)CO)c(=O)[nH]1 [GANCICLOVIR] | – | – | EC50 (Human alphaherpesvirus 1 [6]): < 100 nM |
| CC(C)OC(=O)CN[P@](=O)(OC[C@H]1O[C@@H](n2cnc3c(N)ncnc32)[C@@H](O)[C@@H]1O)Oc1ccccc1 | Active | Active | – |
| CCCCCOC(=O)Nc1ncnc2c1ncn2[C@@H]1O[C@H](CO[P@@](=O)(N[C@@H](C)C(=O)OC(C)C)Oc2ccccc2)[C@@H](O)[C@@H]1O | Active | Active | – |
| CC(C)OC(=O)[C@@H](C)N[P@](=O)(OC[C@H]1O[C@@H](n2cnc3c(N)ncnc32)[C@@H](O)[C@@H]1O)Oc1ccccc1 | Active | Active | – |
